Measured values published in publication PMC11240139, “Exploring the antitumor potential of novel quinoline derivatives via tubulin polymerization inhibition in breast cancer; design, synthesis and molecular docking” (RSC Advances, 2024).

What was measured:
DU-145 (prostate cancer) = experiment: NCI-60 SRB cytotoxicity screen; assay type: cell-based; conditions: Homo sapiens; DU-145, single dose 10 μM; read-out: growth inhibition (GI%)
IGROV1 (ovarian cancer) = experiment: NCI-60 SRB cytotoxicity screen; assay type: cell-based; conditions: Homo sapiens, IGROV-1; IGROV1, single dose 10 μM; read-out: growth inhibition (GI%)
OVCAR-4 (ovarian cancer) = experiment: NCI-60 SRB cytotoxicity screen; assay type: cell-based; conditions: Homo sapiens; OVCAR-4, single dose 10 μM; read-out: growth inhibition (GI%)
CAKI-1 (renal cancer) = experiment: NCI-60 SRB cytotoxicity screen; assay type: cell-based; conditions: Homo sapiens; CAKI-1, single dose 10 μM; read-out: growth inhibition (GI%)
MCF7 (breast cancer) = experiment: NCI-60 SRB cytotoxicity screen; assay type: cell-based; conditions: Homo sapiens; MCF7, single dose 10 μM; read-out: growth inhibition (GI%)
HCT-116 (colon cancer) = experiment: NCI-60 SRB cytotoxicity screen; assay type: cell-based; conditions: Homo sapiens; HCT-116, single dose 10 μM; read-out: growth inhibition (GI%)
UACC-257 (melanoma) = experiment: NCI-60 SRB cytotoxicity screen; assay type: cell-based; conditions: Homo sapiens; UACC-257, single dose 10 μM; read-out: growth inhibition (GI%)
PC-3 (prostate cancer) = experiment: NCI-60 SRB cytotoxicity screen; assay type: cell-based; conditions: PC-3, single dose 10 μM; read-out: growth inhibition (GI%)
A498 (renal cancer) = experiment: NCI-60 SRB cytotoxicity screen; assay type: cell-based; conditions: Homo sapiens; A498, single dose 10 μM; read-out: growth inhibition (GI%)
[1] = test system: MDA-MB-468 (breast cancer); experiment: NCI-60 SRB cytotoxicity screen; assay type: cell-based; conditions: Homo sapiens; MDA-MB-468, single dose 10 μM; read-out: growth inhibition (GI%)
Experimental: The cytotoxic activity of the synthesized quinoline derivatives was determined by the national cancer institute (NCI, Bethesda, Maryland, USA) against 60 different cancer cell lines at a single high dose (10^−5 M) in the full NCI 60 cell panel using the sulforhodamine B assay for cell viability evaluation. In summary, 5 × 10^3 cells were in 96-well plate and incubated in complete media for 24 h. Cells were treated with 100 μL of media containing each newly synthesized compound. After drug exposure, cells were fixed by replacing media with 150 μL of 10% TCA and incubated at 4 °C for 1 h. The TCA solution was removed, and the cells were washed 5 times with distilled water. Aliquots of 70 μL SRB solution (0.4% w/v) were added and incubated in a dark place at room temperature for 10 min. The plates were washed 3 times with 1% acetic acid and allowed to air-dry overnight. Then, 150 μL of TRIS (10 mM) was added to dissolve protein-bound SRB stain. The absorbance was measured at 540 nm.% Cytotoxicity = [1 − (AVx/AVNC)] × 100where AVx denotes the average absorbance of the sample well and AVNC denotes the average absorbance of the negative control.
The methodology of the NCI anticancer screening has been described in details at (http://www.dtp.nci.nih.gov). The anticancer assay was performed in full NCI 60 cell lines derived from nine tumor subpanels, including leukemia, lung, colon, CNS, melanoma, ovarian, renal, prostate, and breast cancer cell lines.
The cell lines were first cultured for 48 h, after being exposed to a single dosage of the compound. Using the protein-binding dye sulforhodamine B dye, cell proliferation and viability were evaluated (SRB assay). The results were presented for each chemical as GI%. Compound that met NCI criteria for substantial activity were further evaluated using a five-dose experiment. The NCI60 cell lines were treated with the chemicals in this assay at five different concentration levels (0.01, 0.1, 1, 10, and 100 μM).

[2] = test system: NCI-H322M (non-small cell lung cancer); experiment: NCI-60 SRB cytotoxicity screen; assay type: cell-based; conditions: Homo sapiens, single dose 10 μM, read-out: growth inhibition (GI%)
HT29 (colon cancer) = experiment: NCI-60 SRB cytotoxicity screen; assay type: cell-based; conditions: Homo sapiens, HT-29; HT29, single dose 10 μM; read-out: growth inhibition (GI%)
T-47D (breast cancer) = experiment: NCI-60 SRB cytotoxicity screen; assay type: cell-based; conditions: Homo sapiens, T47D, single dose 10 μM, read-out: growth inhibition (GI%)
[3] = test system: EKVX (non-small cell lung cancer); experiment: NCI-60 SRB cytotoxicity screen; assay type: cell-based; conditions: Homo sapiens, single dose 10 μM, read-out: growth inhibition (GI%)
KM12 (colon cancer) = experiment: NCI-60 SRB cytotoxicity screen; assay type: cell-based; conditions: Homo sapiens; KM12, single dose 10 μM; read-out: growth inhibition (GI%)
[4] = test system: NCI-H460 (non-small cell lung cancer); experiment: NCI-60 SRB cytotoxicity screen; assay type: cell-based; conditions: Homo sapiens; NCI-H460, single dose 10 μM; read-out: growth inhibition (GI%)
SK-OV-3 (ovarian cancer) = experiment: NCI-60 SRB cytotoxicity screen; assay type: cell-based; conditions: Homo sapiens; SK-OV-3, single dose 10 μM; read-out: growth inhibition (GI%)
UACC-62 (melanoma) = experiment: NCI-60 SRB cytotoxicity screen; assay type: cell-based; conditions: Homo sapiens; UACC-62, single dose 10 μM; read-out: growth inhibition (GI%)
HCT-15 (colon cancer) = experiment: NCI-60 SRB cytotoxicity screen; assay type: cell-based; conditions: Homo sapiens; HCT-15, single dose 10 μM; read-out: growth inhibition (GI%)
[5] = test system: NCI-H23 (non-small cell lung cancer); experiment: NCI-60 SRB cytotoxicity screen; assay type: cell-based; conditions: Homo sapiens; NCI-H23, single dose 10 μM; read-out: growth inhibition (GI%)
SK-MEL-28 (melanoma) = experiment: NCI-60 SRB cytotoxicity screen; assay type: cell-based; conditions: Homo sapiens; SK-MEL-28, single dose 10 μM; read-out: growth inhibition (GI%)
TK-10 (renal cancer) = experiment: NCI-60 SRB cytotoxicity screen; assay type: cell-based; conditions: Homo sapiens; TK-10, single dose 10 μM; read-out: growth inhibition (GI%)
SF-539 (CNS cancer) = experiment: NCI-60 SRB cytotoxicity screen; assay type: cell-based; conditions: Homo sapiens; SF-539, single dose 10 μM; read-out: growth inhibition (GI%)
HL-60(TB) (leukemia) = experiment: NCI-60 SRB cytotoxicity screen; assay type: cell-based; conditions: Homo sapiens, single dose 10 μM, read-out: growth inhibition (GI%)
SR (leukemia) = experiment: NCI-60 SRB cytotoxicity screen; assay type: cell-based; conditions: single dose 10 μM; for inhibition at 10 µM: read-out: growth inhibition (GI%)
UO-31 (renal cancer) = experiment: NCI-60 SRB cytotoxicity screen; assay type: cell-based; conditions: Homo sapiens; UO-31, single dose 10 μM; read-out: growth inhibition (GI%)

Row | SMILES | inhibition at 10 µM (DU-145 (prostate cancer)) | inhibition at 10 µM (IGROV1 (ovarian cancer)) | inhibition at 10 µM (OVCAR-4 (ovarian cancer)) | inhibition at 10 µM (CAKI-1 (renal cancer)) | melting point | inhibition at 10 µM (MCF7 (breast cancer)) | inhibition at 10 µM (HCT-116 (colon cancer)) | inhibition at 10 µM (UACC-257 (melanoma)) | inhibition at 10 µM (PC-3 (prostate cancer)) | inhibition at 10 µM (A498 (renal cancer)) | inhibition at 10 µM [1] | inhibition at 10 µM [2] | inhibition at 10 µM (HT29 (colon cancer)) | inhibition at 10 µM (T-47D (breast cancer)) | inhibition at 10 µM [3] | inhibition at 10 µM (KM12 (colon cancer)) | inhibition at 10 µM [4] | inhibition at 10 µM (SK-OV-3 (ovarian cancer)) | inhibition at 10 µM (UACC-62 (melanoma)) | inhibition at 10 µM (HCT-15 (colon cancer)) | other results
1 | CCc1cccc2cc(C=CC(=O)c3ccc(OC)cc3)c(Cl)nc12 [Compound 3a, 3-(2-Chloro-8-ethylquinolin-3-yl)-1-(4-methoxyphenyl)prop-2-en-1-one] | < 10% | < 10% | 13.5% | 19.3% | 138 to 140 °C | 18% | < 10% | < 10% | < 10% | < 10% | < 10% | < 10% | < 10% | 44% | < 10% | < 10% | < 10% | < 10% | 17.1% | < 10% | inhibition at 10 µM [5]: < 10%; inhibition at 10 µM (SK-MEL-28 (melanoma)): < 10%; inhibition at 10 µM (TK-10 (renal cancer)): < 10%; inhibition at 10 µM (SF-539 (CNS cancer)): 18.9%; inhibition at 10 µM (HL-60(TB) (leukemia)): 45.8%; inhibition at 10 µM (SR (leukemia)): 38.4%; inhibition at 10 µM (UO-31 (renal cancer)): < 10%
2 | CCc1cccc2cc(C=CC(=O)c3ccc(OC)c(OC)c3)c(Cl)nc12 [Compound 3b, 3-(2-Chloro-8-ethylquinolin-3-yl)-1-(3,4-dimethoxyphenyl)prop-2-en-1-one] | 15.8% | < 10% | 42.3% | 40.2% | 135 to 137 °C | 37.1% | 62.8% | < 10% | 32% | < 10% | 39.8% | 22.4% | 26.9% | 57.9% | < 10% | 23.5% | 27.7% | < 10% | 35.9% | 20.4% | inhibition at 10 µM [5]: 20.2%; inhibition at 10 µM (SK-MEL-28 (melanoma)): < 10%; inhibition at 10 µM (TK-10 (renal cancer)): < 10%; inhibition at 10 µM (SF-539 (CNS cancer)): 99.4%; inhibition at 10 µM (HL-60(TB) (leukemia)): 61%; growth inhibition (GI%) (SR (leukemia)): 80.06%; inhibition at 10 µM (SR (leukemia)): 80.1%; inhibition at 10 µM (UO-31 (renal cancer)): 41.8%
3 | CCc1cccc2cc(C=CC(=O)c3cc(OC)c(OC)c(OC)c3)c(Cl)nc12 [Compound 3c, 3-(2-Chloro-8-ethylquinolin-3-yl)-1-(3,4,5-trimethoxyphenyl)prop-2-en-1-one] | 29% | < 10% | 42% | 38.7% | 140 to 142 °C | 70.9% | 61.6% | 43.6% | 53.5% | < 10% | 61.1% | 31.1% | 77.4% | 72.8% | 17.1% | 80.7% | 18.4% | 17.4% | 41.9% | 44.5% | inhibition at 10 µM [5]: 27.4%; inhibition at 10 µM (SK-MEL-28 (melanoma)): 15%; inhibition at 10 µM (TK-10 (renal cancer)): < 10%; inhibition at 10 µM (SF-539 (CNS cancer)): > 100%; inhibition at 10 µM (HL-60(TB) (leukemia)): 73.5%; inhibition at 10 µM (SR (leukemia)): 61.5%; inhibition at 10 µM (UO-31 (renal cancer)): 45%
4 | CCc1cccc2cc(C=CC(=O)c3ccc(F)cc3)c(Cl)nc12 [Compound 3d, 3-(2-Chloro-8-ethylquinolin-3-yl)-1-(4-fluorophenyl)prop-2-en-1-one] | < 10% | < 10% | < 10% | 11.8% | 215 to 217 °C | < 10% | < 10% | < 10% | < 10% | < 10% | < 10% | < 10% | < 10% | < 10% | < 10% | < 10% | < 10% | < 10% | < 10% | < 10% | inhibition at 10 µM [5]: < 10%; inhibition at 10 µM (SK-MEL-28 (melanoma)): < 10%; inhibition at 10 µM (TK-10 (renal cancer)): < 10%; inhibition at 10 µM (SF-539 (CNS cancer)): 11%; inhibition at 10 µM (HL-60(TB) (leukemia)): < 10%; inhibition at 10 µM (SR (leukemia)): < 10%; inhibition at 10 µM (UO-31 (renal cancer)): < 10%
5 | CCc1cccc2cc(-c3cc(-c4ccc(OC)cc4)[nH]c(=O)c3C#N)c(Cl)nc12 [Compound 4a, 4-(2-Chloro-8-ethylquinolin-3-yl)-6-(4-methoxyphenyl)-2-oxo-1,2-dihydropyridine-3-carbonitrile] | < 10% | < 10% | 21.9% | 34.9% | 270 to 272 °C | 16% | < 10% | < 10% | < 10% | < 10% | 14% | < 10% | < 10% | 17.1% | 12.3% | < 10% | < 10% | < 10% | < 10% | < 10% | inhibition at 10 µM [5]: < 10%; inhibition at 10 µM (SK-MEL-28 (melanoma)): < 10%; inhibition at 10 µM (TK-10 (renal cancer)): < 10%; inhibition at 10 µM (SF-539 (CNS cancer)): < 10%; inhibition at 10 µM (HL-60(TB) (leukemia)): < 10%; inhibition at 10 µM (SR (leukemia)): < 10%; inhibition at 10 µM (UO-31 (renal cancer)): < 10%
